Results reported in US8859545B2, “Tetrahydronaphthyridine and tetrahydropyrido[4,3-D]pyrimidine compounds and compositions thereof useful for the treatment of inflammatory and respiratory diseases” (Evotec AG, priority 2005, dated 2014).
Counter-ions that a name gives are not always drawn.

These compounds were tested on P2X2/3 chimera (P2X2/3C) (assay: Calcium uptake assay (P2X antagonist assay, agonist-induced calcium influx)). Conditions: at 3 μM (symbol before the slash).
Format: cell-based
Description: Human P2X3 (Accession no. NM_002559), P2X2 (Accession no. NM_170682) and Rat P2X3 (Accession no. NM_031075) and P2X2 (Accession no. NM_053656) are cloned into a mammalian expression vector (e.g., pcDNA5/TO or pcDNA3 Invitrogen). For coexpression of P2X2 and P2X3, the coding regions of both receptors were cloned into a bicistronic vector using methods similar to those described by Kawashima et al., Receptors Channels 5:53-60, 1998. The P2X2/3 chimera clone was created as described by Neelands et al, and then cloned into an expression vector as above. Receptors are expressed in cells (e.g., HEK293 or 1321N1) via transient transfection using standard lipid mediated transfection, or by creation of stable transfectants for each receptor. Cell lines are maintained in DMEM+5% Glutamax, the appropriate level of selective antibiotic, and 10% heat inactivated FBS.
The agonist EC50 is determined at the start of the assay and compound IC50 experiments are run using a set agonist concentration (EC50-90 depending on cell line) as stimulus. The agonists used are αβMeATP, ATP, or other ATP analogs. Compounds may be tested at concentrations ranging from 1 μM to 10 μM. Functional activity of compounds at the P2X receptor is determined by measuring their ability to inhibit agonist-induced calcium influx. Compounds may be tested for antagonist activity against the P2X2/3 chimera, the P2X3 homomer, or the P2X2/3 heteromer. To test for antagonist activity, cells expressing the appropriate receptor are seeded onto 96 or 384 well plates 18-24 hours prior to assay. On the day of the assay, cells are loaded with calcium-sensitive fluorescent dye (e.g., Fluo-4 no wash reagent-Invitrogen cat# F36206, or the BD™ PBX Calcium Assay Kit-BD cat#640175) in Hank's Buffered Salt Solution (HBSS) with up to 10 mM supplemental CaCl2. Plates are incubated at 37° C. and then equilibrated at room temperature. Antagonism of agonist-induced calcium influx is measured using a fluorescent imaging plate reader. The assay comprises two stages: a pre-treatment phase followed by a treatment phase. Compounds may be tested as follows: For the pre-treatment phase, 50 μL of 3× concentration of test compound in HBSS is added to cells containing 100 μL of dye loading media to achieve a final concentration of 1×. For the treatment phase, at a set interval after pre-treatment, 50 μL of 1× test compound plus 4× agonist solution is added to cells. Fluorescence is measured at 0.1-3 second intervals with an excitation wavelength of 494 nm and an emission wavelength of 515 nm. Responses are measured as peak fluorescence after compound-agonist addition minus baseline fluorescence prior to treatment. Percent inhibition is calculated as follows: […]
A calcium uptake assay was performed as described in paragraphs […] above.

SMILES | Ca Influx P2X2/3C % Inhibition at 3 μM/10 μM
Cc1ccc(N2CCc3ncnc(N(C)Cc4ccc(C(F)(F)F)cc4)c3C2)nc1 [Compound 69] | +/ (compound exhibited 0-25% inhibition at 3 μM)
Cc1ccc(N2CCc3ncnc(NCc4ccc(Cl)cc4F)c3C2)nc1 [Compound 83] | +++/ ^ (compound exhibited 50-75% inhibition at 3 μM)
Cc1ccc(CCNc2ncnc3c2CN(c2ccc(C)cn2)CC3)cc1 [Compound 49] | ++++/ ^ (compound exhibited 75% or greater inhibition at 3 μM)
Cc1ccc(N2CCc3ncnc(NCc4cc(C(F)(F)F)cc(C(F)(F)F)c4)c3C2)nc1 [Compound 125] | +/ (compound exhibited 0-25% inhibition at 3 μM)
Cc1ccc(N2CCc3ncnc(NCc4cccc(F)c4)c3C2)nc1 [Compound 57] | ++++/ ^ (compound exhibited 75% or greater inhibition at 3 μM)
Cc1ccc(N2CCc3ncnc(NCc4cc(F)cc(C(F)(F)F)c4)c3C2)nc1 [Compound 75] | +/ (compound exhibited 0-25% inhibition at 3 μM)
Cc1ccc(N2CCc3ncnc(NCc4ccc(Cl)cc4)c3C2)nc1 [Compound 25] | ++++/ ^ (compound exhibited 75% or greater inhibition at 3 μM)
Cc1ccc(N2CCc3ncnc(NCc4ccccc4Cl)c3C2)nc1 [Compound 30] | ++++/ ^ (compound exhibited 75% or greater inhibition at 3 μM)
Cc1ccc(N2CCc3ncnc(NCc4ccc(Cl)cc4Cl)c3C2)nc1 [Compound 78] | +/ (compound exhibited 0-25% inhibition at 3 μM)
CCc1ccc(CN(C)c2ncnc3c2CN(c2ccc(C)cn2)CC3)cc1 [Compound 65] | +/ (compound exhibited 0-25% inhibition at 3 μM)
Cc1ccc(N2CCc3ncnc(NCc4ccc5c(c4)OCO5)c3C2)nc1 [Compound 37] | ++++/ ^ (compound exhibited 75% or greater inhibition at 3 μM)
Cc1ccc(N2CCc3ncnc(NCc4ccccc4OC(F)F)c3C2)nc1 [Compound 52] | ++++/ ^ (compound exhibited 75% or greater inhibition at 3 μM)
Cc1ccc(N2CCc3ncnc(N(C)Cc4ccc(F)cc4)c3C2)nc1 [Compound 67] | + (compound exhibited 0-25% inhibition at 3 μM)
O=S(=O)(c1ccc(Nc2ncnc3c2CN(c2ncccc2Cl)CC3)cc1)C(F)(F)F [Compound 6, 6-(3-Chloropyridin-2-yl)-5,6,7,8-tetrahydro-N-(4-(trifluoromethylsulfonyl)phenyl)pyrido[4,3-d]pyrimidin-4-amine] | +/ (compound exhibited 0-25% inhibition at 3 μM)
Cc1ccc(N2CCc3ncnc(NCc4ccc(F)c(F)c4)c3C2)nc1 [Compound 73] | ++++/ ^ (compound exhibited 75% or greater inhibition at 3 μM)
Cc1ccc(N2CCc3ncnc(NCc4ccc(C(F)(F)F)cc4)c3C2)nc1 [Compound 50] | ++++/ ^ (compound exhibited 75% or greater inhibition at 3 μM)

SMILES | Ca Influx P2X2/3C % Inhibition at 3 μM/10 μM
Cc1ccc(N2CCc3ncnc(NCc4ccc(C(C)(C)C)cc4)c3C2)nc1 [Compound 44] | +/ (compound exhibited 0-25% inhibition at 3 μM)
Cc1ccc(N2CCc3ncnc(NCc4cccc(Cl)c4)c3C2)nc1 [Compound 55] | ++++/ ^ (compound exhibited 75% or greater inhibition at 3 μM)
Cc1ccc(N2CCc3ncnc(NCc4ccccc4OC(F)(F)F)c3C2)nc1 [Compound 42] | ++++/ ^ (compound exhibited 75% or greater inhibition at 3 μM)
Cc1ccc(N2CCc3ncnc(NCCc4ccccc4Cl)c3C2)nc1 [Compound 32] | ++++ (compound exhibited 75% or greater inhibition at 3 μM)
COc1cccc(CCNc2ncnc3c2CN(c2ccc(C)cn2)CC3)c1 [Compound 46] | ++++/ ^ (compound exhibited 75% or greater inhibition at 3 μM)
Cc1ccc(N2CCc3ncnc(NC(C)c4ccc(F)cc4)c3C2)nc1 (stereo not drawn) [Compound 86] | ++++/ ^ (compound exhibited 75% or greater inhibition at 3 μM)
COc1ccc(CCNc2ncnc3c2CN(c2ccc(C)cn2)CC3)cc1 [Compound 35] | ++++/ ^ (compound exhibited 75% or greater inhibition at 3 μM)
Cc1ccc(N2CCc3ncnc(NCc4ccc(Cl)c(Cl)c4)c3C2)nc1 [Compound 85] | +/ (compound exhibited 0-25% inhibition at 3 μM)
Cc1ccc(N2CCc3ncnc(NCc4cc(C(F)(F)F)ccc4F)c3C2)nc1 [Compound 74] | +/ (compound exhibited 0-25% inhibition at 3 μM)
Cc1ccc(N2CCc3ncnc(NCc4ccc(C(F)(F)F)cc4F)c3C2)nc1 [Compound 121] | ++++/ ^ (compound exhibited 75% or greater inhibition at 3 μM)
COc1cc(CCNc2ncnc3c2CN(c2ccc(C)cn2)CC3)cc(OC)c1 [Compound 51] | +++/ ^ (compound exhibited 50-75% inhibition at 3 μM)
Cc1ccc(N2CCc3ncnc(NCc4cc(Cl)ccc4F)c3C2)nc1 [Compound 111] | +++/ ^ (compound exhibited 50-75% inhibition at 3 μM)
Cc1ccc(N2CCc3ncnc(N(C)Cc4ccc(Cl)cc4)c3C2)nc1 [Compound 62] | +/ (compound exhibited 0-25% inhibition at 3 μM)
COc1ccc(CN(C)c2ncnc3c2CN(c2ccc(C)cn2)CC3)cc1 [Compound 68] | +/ (compound exhibited 0-25% inhibition at 3 μM)
Cc1ccc(N2CCc3ncnc(NCc4ccc(C)cc4C)c3C2)nc1 [Compound 79] | ++/ (compound exhibited 25-50% inhibition at 3 μM)

Same assay, conditions: at 10 μM (symbol after the slash)

SMILES | Ca Influx P2X2/3C % Inhibition at 3 μM/10 μM
CC1(C)C(=O)Nc2cc(Nc3ncnc4c3CN(c3ncccc3Cl)CC4)ccc21 [Compound 13, 6-[6-(3-Chloro-pyridin-2-yl)-5,6,7,8-tetrahydro-pyrido[4,3-d]pyrimidin-4-ylamino]-3,3-dimethyl-1,3-dihydro-indol-2-one] | /* (compound exhibited 0-25% inhibition at 10 μM)
Cc1ccccc1N1CCc2ncnc(Nc3ccc(C(F)(F)F)cc3)c2C1 [Compound 10, N-(4-(Trifluoromethyl)phenyl)-5,6,7,8-tetrahydro-6-o-tolylpyrido[4,3-d]pyrimidin-4-amine] | /* (compound exhibited 0-25% inhibition at 10 μM)
FC(F)(F)c1ccc(Nc2ncnc3c2CN(c2ncccc2Cl)CC3)cn1 [Compound 4, 6-(3-Chloropyridin-2-yl)-N-(6-(trifluoromethyl)pyridin-3-yl)-5,6,7,8-tetrahydropyrido[4,3-d]pyrimidin-4-amine] | /* (compound exhibited 0-25% inhibition at 10 μM)
Cc1ccc(N2CCc3ncnc(NCC4CCCCC4)c3C2)nc1 [Compound 26] | /**** (compound exhibited 25-50% inhibition at 10 μM)
Cc1ccc(N2CCc3ncnc(N(C)Cc4ccc(F)cc4)c3C2)nc1 [Compound 67] | *** (compound exhibited 25-50% inhibition at 10 μM)
Cc1ccc(N2CCc3ncnc(Nc4ccc(C(F)(F)F)cc4)c3C2)cc1 [Compound 12, N-(4-(Trifluoromethyl)phenyl)-5,6,7,8-tetrahydro-6-p-tolylpyrido[4,3-d]pyrimidin-4-amine] | /* (compound exhibited 0-25% inhibition at 10 μM)
CC1(C)CNc2cc(Nc3ncnc4c3CN(c3ncccc3Cl)CC4)ccc21 [Compound 15, [6-(3-Chloro-pyridin-2-yl)-5,6,7,8-tetrahydro-pyrido[4,3-d]pyrimidin-4-yl]-(3,3-dimethyl-2,3-dihydro-1H-indol-6-yl)-amine HCl salt] | /* (compound exhibited 0-25% inhibition at 10 μM)
COc1ccccc1CNc1ncnc2c1CN(c1ccc(C)cn1)CC2 [Compound 27] | /**** (compound exhibited 25-50% inhibition at 10 μM)
Cc1ccc(N2CCc3ncnc(NCCc4ccccc4Cl)c3C2)nc1 [Compound 32] | **** (compound exhibited 25-50% inhibition at 10 μM)
Cc1ccc(N2CCc3ncnc(NCC4(O)CCCC(C)(C)C4)c3C2)nc1 (stereo not drawn) [Compound 18, 3,3-Dimethyl-1-{[6-(5-methyl-pyridin-2-yl)-5,6,7,8-tetrahydro-pyrido[4,3-d]pyrimidin-4-ylamino]-methyl}-cyclohexanol] | /* (compound exhibited 0-25% inhibition at 10 μM)
Cc1ccc(N2CCc3ncnc(NCc4ccccc4C)c3C2)nc1 [Compound 24] | /**** (compound exhibited 25-50% inhibition at 10 μM)
